In one assay the target is T1, RACK1 (Homo sapiens, UniProt P63244).
T1 construct: endogenous in cells; host or cells: HEp-2 cells (human laryngeal carcinoma line), virus-infected
In words: RACK1 protein western in EV-D68 infected HEp-2 cells. The settings on record: 48 h. The assay is classed as cell-based. As to the method: HEp-2 cells were grown to 80-90% confluency in Dulbecco's Modified Eagle's medium (DMEM) supplemented with 10% fetal calf serum (FCS) and 1% penicillin-streptomycin (PS) and fungicide. The virus and the indicated concentration of compounds were added and incubated for 48 h. After washing with PBS, the cell lysates were collected and were run in a Biorad XT-Criterion gel and transferred to a PVDF membrane. The membrane was blotted with an antibody directed against the EVD68 major structural protein VP1 purchased from Genetex (Irvine, Calif.). An anti-mouse IgG-HRP secondary antibody and Biorad's Western ECL substrate-Clarity was used to label the bands and the image was obtained in a Biorad Gel doc system. […] The tubulin antibody was used as the loading control.
HEp-2 cells were grown to 80-90% confluency in Dulbecco's Modified Eagle's medium (DMEM) supplemented with 10% fetal calf serum FCS and 1% penicillin-streptomycin (PS) and fungicide. The representative virus (EV-D68) and the indicated concentration of compounds were added and incubated for 48 h. After washing with PBS, the cell lysates were collected and were run in a Biorad XT-Criterion gel and transferred to a PVDF membrane. The membrane was blotted with an antibody directed against the EV-D68 major structural protein VP1 purchased from Genetex (Irvine, Calif.). […]

Another assay has as its system HSV-1. The assay is described as follows: Plaque formation unit (pfu) assay. The assay is classed as cell-based. As to the method:
The viral plaque assay was performed as previously described [Tang Q, Li L, Ishov A M, Revol V, Epstein A L, Maul G G. Determination of minimum herpes simplex virus type 1 components necessary to localize transcriptionally active DNA to ND10. J Virol. 2003; 77:5821-28.] with slight modifications. The HSV-1 strain 17 was diluted serially in a volume of 1 mL. Then 300 ul of the virus was added onto confluent HEp-2 cell monolayers in 12-well plates; each dilution had 3 wells. After adsorption for 2 h, the medium was removed and the cells were washed twice with serum-free DMEM and overlaid with phenol-free DMEM containing 5% FCS, 0.5% low-melting point agarose (GIBCO), and 1% penicillin-streptomycin. The cells were incubated at 37° C. for 48 hours. Neutral red was added on the agarose to stain the live cells. The plaques were counted and reported as pfu per mL. Mean pfu was determined after averaging the number of pfu from different dilutions. Student's t-tests were used to statistically analyze differences between the groups; a p-value lower than 0.005 was used as the threshold for a significant difference.
To assess the efficacy of SD-29 on the HSV-1 proliferation, a plaque assay was performed. We wanted to quantitatively assess whether SD-29 could inhibit viral replication. Because HSV-1 was able to enter cultured HEp-2 cells, we evaluated whether this entry led to productive virus replication.
In Table 1, confluent monolayers of HEp-2 cells were infected with serially diluted HSV-1 virus and were fixed and Giemsa stained at 0, 6, 12, and 24 hr post infection. The numbers of plaques were visualized. The number of plaques formed post infection decreased in the presence of SD-29 in a time-dependent manner.

Take `Nn1c(S)nnc1-c1cc(Cl)cc(Cl)c1` [SD29-14]: the RACK1 protein level result on RACK1 was “loss of RACK1 protein”.
With `Nn1c(S)nnc1-c1ccc(F)cc1` [SD-29], the Plaque formation unit in the assay on HSV-1 (0 hpi) is 0 ± 0 PFU/mL; in the assay on HSV-1 (6 hpi), 0 ± 0 PFU/mL; with HSV-1 (12 hpi) it was 1 ± 0.08 × 10^2 PFU/mL; in the assay with HSV-1 (24 hpi), 1.8 ± 0.04 × 10^5 PFU/mL. Besides, the “production of infectious virions” value in the assay with HSV-1 (infected HEp-2 cells, versus DMSO) was “failed to produce significant infectious virions”.

The record behind these values is US11596623B2, “Methods for treating virus infection or proliferation” (HOWARD UNIVERSITY, priority 2018, dated 2023).
